# Results published in PubChem BioAssay (NCI).
#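 Tested at 5 concentrations; 48 h exposure; 96-well plates; endpoints linearly interpolated, else capped at highest concentration. GI50 marks 50% less growth. TGI is the concentration that stops growth completely.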
# Experiments:
# Assay in all cases: NCI tumour cell line growth inhibition, 48 h
# [1] = system: IGROV1 ovarian
# [2] = system: NCI-H522 lung
# [3] = system: MCF7 breast
# [4] = system: HOP-92 NSCLC
# [5] = system: SF-295 CNS
# [6] = system: CCRF-CEM leukemia
# [7] = system: HT29 colon
# [8] = system: A498 renal
# [9] = system: RXF 393 renal
# [10] = system: MDA-N
SMILES,TGI [1] [µM],TGI [2] [µM],TGI [3] [µM],TGI [4] [µM],TGI [5] [µM],TGI [6] [µM],TGI [7] [µM],TGI [8] [µM],TGI [9] [µM],TGI [10] [µM],GI50 [1] [µM],GI50 [3] [µM],GI50 [4] [µM],GI50 [6] [µM],GI50 [9] [µM],GI50 [2] [µM],GI50 [5] [µM]
COc1ccc2c(c1)CCN1CCCc3ccccc3C21 (centres undefined),> 100,> 100,> 100,> 100,> 100,> 100,> 100,> 100,> 100,,,,,,,,
CCOC(=O)c1[nH]c2cccc3c2c1CC[C@H](NC(=O)C(F)(F)F)C3=O,> 100,,> 100,69.4,72.4,> 100,> 100,> 100,,> 100,,,,,,,
CN[C@@H](C)[C@@H](O)c1ccccc1,> 100,> 10,> 100,> 100,> 100,> 10,> 100,,,> 100,,,,,,,
O=C(O)CNC(=O)c1ccc2cc(C(=O)N3CC(CCl)c4ccc([N+](=O)[O-])cc43)[nH]c2c1 (centres undefined),> 100,> 100,> 100,> 100,> 100,> 100,> 100,,> 100,> 100,,,,,,,
COC1=C2C=[N+](C)C3C(=C2C=CC1OC)Cc1cc2c(cc13)OCO2 (centres undefined),,21.4,21.5,49.3,29,> 100,26.3,> 100,,23.6,,,,,,,
Cn1ccnc1CCc1ccc(Cl)c(Cl)c1,> 100,> 100,,> 100,> 100,> 100,> 100,> 100,> 100,,,,,,,,
COc1c(C)c(C/C=C(\C)CC/C=C(\C)CC/C=C(\C)CCC=C(C)C)c(OC)c2ccccc12,> 100,> 100,> 100,> 100,> 100,64.1,> 100,,> 100,> 100,,,,,,,
CN(Cc1cnc2nc(N)nc(N)c2n1)c1ccc(C(=O)NC(CCC(=O)NC(CC(P(=O)(O)O)P(=O)(O)O)C(=O)O)C(=O)O)cc1 (centres undefined),> 100,> 100,> 100,> 100,> 100,,> 100,,> 100,> 100,,,,,,,
CC(=O)Oc1cc(OC(C)=O)c2c(C)cc(=O)oc2c1,> 100,,> 100,,> 100,> 100,> 100,> 100,,> 100,,,,,,,
CC12ON(P(=O)(c3ccccc3)c3ccccc3)C(C)(c3ccccc31)c1ccccc12,> 100,> 100,,> 100,> 100,> 100,> 100,,> 100,> 100,,,,,,,
CCN(CC)CCOc1ccc(C(O)(Cc2ccc(OC)cc2)c2ccccc2)cc1 (centres undefined),87.8,40.9,,46,33.1,44.9,14.6,41.2,30.4,,,,,,,,
C[n+]1c2ccccc2c(/C=N\NS(=O)(=O)c2ccc(Cl)cc2)c2ccccc21,> 100,> 100,,> 100,> 100,> 100,> 100,> 100,> 100,,,,,,,,
Nc1ccc2ccc(-c3ccc[nH]3)nc2n1,> 100,> 100,> 100,> 100,> 100,,,> 100,> 100,> 100,,,,,,,
CC1=CCC[C@H]2[C@](C)(CC3=CC(=O)C(Sc4ccccc4)=CC3=O)[C@@H](C)CC[C@]12C,30.4,,51.7,31.9,32.9,17.4,,39,34.3,32.4,16.2,22.6,16.8,3.89,16.1,,
CC12CCC(C(=Nc3cc(C(F)(F)F)cc(C(F)(F)F)c3)C1=O)C2(C)C (centres undefined),76.1,,> 100,,> 100,> 100,> 100,62.5,37.3,,,,,,,,
NC(CC(O)(c1ccccc1)c1ccccc1)c1ccccc1S (centres undefined),,30.3,29.9,,31.4,40.7,37.5,32.7,31,30.4,,,,,,,
COc1ccc(CNc2nc3cc(C(F)(F)F)ccc3nc2-c2ccccc2)cc1OC,> 100,> 100,42.5,,> 100,> 100,61.1,,> 100,> 100,,,,,,,
N[C@H](CCC(=O)NCP(=O)(O)O)C(=O)O,> 100,> 100,> 100,,> 100,,> 100,> 100,,> 100,,,,,,,
O=[N+]([O-])c1ccc([N+]2=NC(c3ccccc3)=NN(c3ccccc3)C2)cc1,> 100,> 100,,> 100,> 100,> 100,> 100,,> 100,,,,,,,,
CCC(=O)/C(=C\I)c1ccccc1,4.28,,,4.27,33.4,,2.51,32.1,3.01,11.2,,,,,,,
CC(=O)N(C(C)=O)n1c(Cc2ccc(C)cc2)nn(C(C)=O)c1=O,> 100,> 100,> 100,> 100,> 100,> 100,> 100,> 100,,> 100,,,,,,,
CN(C)c1ccc(/C=C/C(=O)O)cc1,> 100,> 100,,,> 100,> 100,> 100,> 100,,,,,,,,,
Cc1ccc(S(=O)(=O)N/N=C2/CCC(C(C)(C)C)CC2Br)cc1 (centres undefined),> 100,35.3,51.9,72.3,> 100,64.2,88.9,> 100,,> 100,,,,,,,
Clc1ccc(C2CC(c3cccc(Nc4ccncc4)c3)=NN2c2cc(Cl)cc(Cl)c2)cc1 (centres undefined),3.32,3.79,4.73,2.99,3.23,> 100,,,,,1.71,2.05,1.51,3.52,,1.86,1.76
